Values quoted from earlier work, collected in patent US20230348531A1, “ISOLATION AND PURIFICATION OF BACTERIOCIN PRODUCED BY LACTOBACILLUS SAKEI AND ANTIBACTERIAL USE THEREOF AND LACTIC ACID BACTERIA USED” (Zhejiang Gongshang University, priority 2022, published 2023).

Tested on: gram-negative bacteria such as Escherichia coli
Settings: background statement

Nisin
inhibitory effect on gram-negative bacteria: no inhibitory effect
